Experimental findings from ChEMBL document CHEMBL1201862, “PubChem BioAssay data set” (2004) are described below.

Among the test systems are ACHN; CAKI-1; CCRF-CEM; COLO 205; HCC 2998; HT-29; KM12; MOLT-4; NCI-H522; NCI/ADR-RES; OVCAR-4; OVCAR-5; RXF 393; SF-539; SN12C; SNB-75; SR; TK-10; U-251; UACC-257.
What all share (assay): NCI-60 cell line screen, 48 h

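Protocol summary: plate cells (96-well), add compound at 5 concentrations, incubate 48 h, interpolate endpoints linearly. The concentration for 50% growth inhibition is given as GI50.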 Calls of active or inactive are those of the source. Cut-off read from the data, not from the text of the source: active = GI50 up to about 1.1 µM and inactive = higher. Some results are limits rather than exact numbers.

On to `CCOC(=O)/C=C/C1(CCOC(C)=O)CCCCC1`, for which the GI50 with ACHN, with CAKI-1, in the assay on CCRF-CEM, with COLO 205, in the assay on HCC 2998 and with HT-29 was > 10 µM (inactive) throughout. Also, the GI50 in the assay on KM12, in the assay with MOLT-4, with NCI-H522, in the assay on NCI/ADR-RES, in the assay with OVCAR-4 and in the assay with OVCAR-5 was > 10 µM (inactive) in each case. Moreover, the GI50 in the assay on RXF 393, with SF-539, in the assay on SN12C, with SNB-75, with SR and in the assay with TK-10 was > 10 µM (inactive) each time. In addition, the GI50 with U-251 and in the assay on UACC-257 was > 10 µM (inactive) in each case.

For `CCOC(=O)c1c(N/C(S)=N/c2ccccc2)sc2c1CCOC2`, the GI50 with ACHN was 97.3 µM (inactive); in the assay on CAKI-1, 43.3 µM (inactive); in the assay with CCRF-CEM it was 63.7 µM (inactive); in the assay with COLO 205 it was > 100 µM (inactive); in the assay on HCC 2998, 70.1 µM (inactive); in the assay on HT-29, 89.9 µM (inactive). Also, the GI50 is 69.5 µM (inactive) in the assay on KM12; 69.5 µM (inactive) in the assay with MOLT-4; 64.9 µM (inactive) with NCI-H522; 60.4 µM (inactive) with NCI/ADR-RES; 61.5 µM (inactive) in the assay with OVCAR-4; 38.4 µM (inactive) with OVCAR-5. The GI50 is 69.2 µM (inactive) in the assay on RXF 393; > 100 µM (inactive) in the assay with SF-539; 48.8 µM (inactive) in the assay on SN12C; 17.5 µM (inactive) in the assay on SNB-75; 53.5 µM (inactive) in the assay on SR; 62.8 µM (inactive) in the assay on TK-10. Also, the values for the GI50 with U-251 and in the assay on UACC-257 were > 100 µM (inactive) and 64 µM (inactive), respectively.

Turning to `CN(CCC#N)c1ccc(/C=C2\SC(=S)NC2=O)cc1`, the GI50 was 62.4 µM (inactive) in the assay with ACHN; > 100 µM (inactive) with CAKI-1; 6.75 µM (inactive) in the assay on CCRF-CEM; 48.2 µM (inactive) in the assay on COLO 205; 51.6 µM (inactive) in the assay on HCC 2998; 87.1 µM (inactive) in the assay with HT-29. For the same compound, the GI50 in the assay with KM12 is 40.7 µM (inactive); in the assay with MOLT-4, 42 µM (inactive); in the assay with NCI-H522, 71.1 µM (inactive); in the assay on NCI/ADR-RES it was > 100 µM (inactive); with OVCAR-4, 62.8 µM (inactive); in the assay on OVCAR-5 it was > 100 µM (inactive). The GI50 is 23.6 µM (inactive) with RXF 393; 49.4 µM (inactive) in the assay with SF-539; 80.4 µM (inactive) with SN12C; 35 µM (inactive) in the assay with SNB-75; 24.3 µM (inactive) in the assay with SR; 49.7 µM (inactive) in the assay on TK-10. For the same compound, the GI50 in the assay on U-251 was 32.8 µM (inactive); in the assay with UACC-257 it was > 100 µM (inactive).

With `COC1/C=C/C(C)C(OC)CC(O)/C=C/C(C)C(C(C)C(OC)C(C)CCC(=O)C(C)C(C/C=C/N(C)C=O)OC)OC(=O)/C=C/C=C(\C)CC(OC)C(OC)C2=CC(=O)O[C@@H](C(C)C(OC)C1)[C@H]2O` (stereo not given in full), the GI50 was 0.0367 µM (active) with ACHN; 0.0148 µM (active) in the assay on CAKI-1; 0.0499 µM (active) in the assay on CCRF-CEM; 0.0205 µM (active) in the assay with COLO 205; 0.0182 µM (active) with HCC 2998; 0.0356 µM (active) with HT-29. Moreover, the GI50 with KM12 was 0.0399 µM (active); with MOLT-4 it was 0.0681 µM (active); in the assay with NCI-H522 it was 0.0295 µM (active); in the assay with NCI/ADR-RES, 0.0522 µM (active); with OVCAR-4, 0.0421 µM (active); in the assay with OVCAR-5, 0.0479 µM (active). Also, the GI50 in the assay with RXF 393 was 0.039 µM (active); in the assay with SF-539, 0.0313 µM (active); in the assay on SN12C it was 0.0498 µM (active); with SNB-75 it was 0.034 µM (active); in the assay on SR, 0.0617 µM (active); in the assay on TK-10 it was 0.0548 µM (active). Also, the GI50 in the assay with U-251 was 0.0303 µM (active); with UACC-257 it was 0.0448 µM (active).

In the case of `CCOC(=O)c1ccc(/N=c2/[nH]c3ccccc3s/c2=N/c2ccc(C(=O)OCC)cc2)cc1`, the GI50 with ACHN was 29.1 µM (inactive); with CAKI-1, > 100 µM (inactive); in the assay with CCRF-CEM it was > 100 µM (inactive); in the assay on COLO 205, > 100 µM (inactive); in the assay on HCC 2998, > 100 µM (inactive); in the assay on HT-29, 70.3 µM (inactive). Also, the GI50 with KM12 is > 100 µM (inactive); with MOLT-4, > 100 µM (inactive); in the assay on NCI-H522, 5.24 µM (inactive); in the assay on NCI/ADR-RES, 88.9 µM (inactive); with OVCAR-4, 33.6 µM (inactive); in the assay on OVCAR-5, > 100 µM (inactive). The GI50 is > 100 µM (inactive) with RXF 393; 72.8 µM (inactive) in the assay with SF-539; > 100 µM (inactive) in the assay on SN12C; 48 µM (inactive) in the assay with SNB-75; > 100 µM (inactive) in the assay with SR; > 100 µM (inactive) in the assay with TK-10. The results for the GI50 with U-251 and in the assay with UACC-257 were 39.4 µM (inactive) and > 100 µM (inactive), respectively.

As to `Oc1c(C(Nc2ccccn2)c2ccccc2)ccc2cccnc12` (stereo not given), the GI50 was 3.56 µM (inactive) with ACHN; 4.09 µM (inactive) in the assay with CAKI-1; 1.37 µM (inactive) in the assay with CCRF-CEM; 4.74 µM (inactive) in the assay with COLO 205; 49.9 µM (inactive) with HCC 2998; 4.55 µM (inactive) with HT-29. Also, the GI50 in the assay on KM12 is 4.59 µM (inactive); in the assay on MOLT-4, 2.39 µM (inactive); in the assay with NCI-H522, 2.68 µM (inactive); with NCI/ADR-RES it was 1.82 µM (inactive); in the assay with OVCAR-4, 3.5 µM (inactive); in the assay on OVCAR-5, 7.78 µM (inactive). The GI50 was 3.84 µM (inactive) with RXF 393; 3.18 µM (inactive) in the assay on SF-539; 1.24 µM (inactive) in the assay on SN12C; 6.24 µM (inactive) in the assay on SNB-75; 2.31 µM (inactive) in the assay on SR; 4.99 µM (inactive) in the assay with TK-10. The GI50 in the assay on U-251 is 2.72 µM (inactive); with UACC-257, 7.8 µM (inactive).

With `O=Cc1ccc(-c2cccc([N+](=O)[O-])c2)s1`, the GI50 is > 100 µM (inactive) in the assay on ACHN; > 100 µM (inactive) in the assay with CAKI-1; 96.2 µM (inactive) in the assay with CCRF-CEM; > 100 µM (inactive) with COLO 205; > 100 µM (inactive) with HCC 2998; > 100 µM (inactive) in the assay on HT-29. The GI50 in the assay with KM12 was > 100 µM (inactive); with MOLT-4 it was 41.2 µM (inactive); in the assay on NCI-H522, > 100 µM (inactive); in the assay on NCI/ADR-RES, 94.6 µM (inactive); in the assay on OVCAR-4, > 100 µM (inactive); with OVCAR-5, > 100 µM (inactive). Besides, the GI50 in the assay on RXF 393 is 54.3 µM (inactive); in the assay on SF-539, > 100 µM (inactive); in the assay on SN12C, > 100 µM (inactive); with SNB-75, 70.8 µM (inactive); in the assay with SR it was 56.5 µM (inactive); in the assay with TK-10, > 100 µM (inactive). Moreover, the GI50 is 45.4 µM (inactive) in the assay on U-251 and > 100 µM (inactive) in the assay on UACC-257.
